Test results from BindingDB's records for patent US11859014 (Emory University, 2024).

Tests used:
Genome polyprotein [1] = target: Genome polyprotein (Hu/NV/NV/1968/US, UniProt Q83883); assay: Fret Assay
Method: (§1) The ability of these compounds to inhibit the NoV, specifically Minerva virus protease catalytic Cys139 covalently (IC50 and Ki) was determined with an enzyme kinetic assay. NoV strains, specifically GII.4 such as the Minerva virus are responsible for causing the majority (80%) of infections in humans. The activity of the inhibitors was evaluated by monitoring the cleavage of a FRET substrate every one minute for 20 minutes (excitation/emission: 488/520 nm) using a SpectraMax M5 microplate reader (Molecular Devices, Sunnyvale CA). Serial dilutions of each inhibitor were incubated with enzyme for 90 minutes at 37° C. before addition of the FRET substrate to ensure complete inactivation. Commercially available protease inhibitors chymostatin and rupintrivir were used as controls.

Genome polyprotein [2] = target: Genome polyprotein (Norovirus Hu/GII.P4_GII.4/Minerva/2006/USA, UniProt A0A0K2E2J2); assay: Fret Assay
Sequence of Genome polyprotein (Norovirus Hu/GII.P4_GII.4/Minerva/2006/USA, UniProt A0A0K2E2J2) (A0A0K2E2J2 whole entry): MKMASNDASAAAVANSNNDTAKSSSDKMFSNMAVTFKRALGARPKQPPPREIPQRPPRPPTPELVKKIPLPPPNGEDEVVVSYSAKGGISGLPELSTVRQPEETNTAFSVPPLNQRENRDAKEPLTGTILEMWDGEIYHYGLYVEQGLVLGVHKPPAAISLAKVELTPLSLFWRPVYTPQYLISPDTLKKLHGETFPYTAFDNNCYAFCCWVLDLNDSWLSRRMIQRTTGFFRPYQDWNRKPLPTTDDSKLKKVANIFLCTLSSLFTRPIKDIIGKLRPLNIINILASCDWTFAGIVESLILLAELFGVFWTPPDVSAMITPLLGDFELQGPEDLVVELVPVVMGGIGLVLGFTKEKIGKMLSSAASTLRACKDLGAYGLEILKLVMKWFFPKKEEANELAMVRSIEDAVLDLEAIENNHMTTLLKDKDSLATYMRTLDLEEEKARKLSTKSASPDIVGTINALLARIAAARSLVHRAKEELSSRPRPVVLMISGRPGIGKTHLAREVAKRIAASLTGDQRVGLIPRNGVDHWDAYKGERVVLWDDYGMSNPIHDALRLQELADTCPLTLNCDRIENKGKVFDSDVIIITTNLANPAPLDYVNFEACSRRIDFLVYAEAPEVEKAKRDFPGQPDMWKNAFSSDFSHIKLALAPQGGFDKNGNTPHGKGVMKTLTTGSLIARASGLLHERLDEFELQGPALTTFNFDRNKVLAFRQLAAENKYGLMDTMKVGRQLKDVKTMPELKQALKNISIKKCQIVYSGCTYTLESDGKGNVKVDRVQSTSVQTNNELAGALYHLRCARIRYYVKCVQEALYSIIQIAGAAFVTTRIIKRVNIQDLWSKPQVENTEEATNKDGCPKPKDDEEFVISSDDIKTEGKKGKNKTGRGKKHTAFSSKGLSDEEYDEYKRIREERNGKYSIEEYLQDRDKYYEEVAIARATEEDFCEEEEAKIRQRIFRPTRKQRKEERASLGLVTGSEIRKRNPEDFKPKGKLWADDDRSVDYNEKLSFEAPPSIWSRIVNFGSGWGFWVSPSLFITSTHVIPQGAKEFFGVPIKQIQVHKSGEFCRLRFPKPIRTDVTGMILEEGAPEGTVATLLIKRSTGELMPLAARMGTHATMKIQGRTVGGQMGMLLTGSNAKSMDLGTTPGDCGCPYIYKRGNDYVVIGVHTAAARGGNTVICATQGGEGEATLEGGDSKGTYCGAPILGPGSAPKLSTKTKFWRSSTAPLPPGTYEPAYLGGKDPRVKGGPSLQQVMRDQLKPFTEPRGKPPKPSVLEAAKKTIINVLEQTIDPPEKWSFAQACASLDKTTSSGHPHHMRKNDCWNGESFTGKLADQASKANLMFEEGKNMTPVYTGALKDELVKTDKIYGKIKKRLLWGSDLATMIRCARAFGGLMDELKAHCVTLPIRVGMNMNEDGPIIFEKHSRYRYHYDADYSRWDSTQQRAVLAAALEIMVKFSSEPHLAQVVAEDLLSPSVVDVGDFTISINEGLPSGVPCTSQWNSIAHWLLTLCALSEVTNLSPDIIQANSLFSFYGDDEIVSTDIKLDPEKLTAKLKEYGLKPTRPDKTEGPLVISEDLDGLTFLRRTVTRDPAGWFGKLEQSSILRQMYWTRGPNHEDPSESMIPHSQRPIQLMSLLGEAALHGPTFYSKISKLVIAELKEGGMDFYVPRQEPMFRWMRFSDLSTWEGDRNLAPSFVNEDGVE
Method: as §1

Sequence of Genome polyprotein (Hu/NV/NV/1968/US, UniProt Q83883) (Q83883 whole entry): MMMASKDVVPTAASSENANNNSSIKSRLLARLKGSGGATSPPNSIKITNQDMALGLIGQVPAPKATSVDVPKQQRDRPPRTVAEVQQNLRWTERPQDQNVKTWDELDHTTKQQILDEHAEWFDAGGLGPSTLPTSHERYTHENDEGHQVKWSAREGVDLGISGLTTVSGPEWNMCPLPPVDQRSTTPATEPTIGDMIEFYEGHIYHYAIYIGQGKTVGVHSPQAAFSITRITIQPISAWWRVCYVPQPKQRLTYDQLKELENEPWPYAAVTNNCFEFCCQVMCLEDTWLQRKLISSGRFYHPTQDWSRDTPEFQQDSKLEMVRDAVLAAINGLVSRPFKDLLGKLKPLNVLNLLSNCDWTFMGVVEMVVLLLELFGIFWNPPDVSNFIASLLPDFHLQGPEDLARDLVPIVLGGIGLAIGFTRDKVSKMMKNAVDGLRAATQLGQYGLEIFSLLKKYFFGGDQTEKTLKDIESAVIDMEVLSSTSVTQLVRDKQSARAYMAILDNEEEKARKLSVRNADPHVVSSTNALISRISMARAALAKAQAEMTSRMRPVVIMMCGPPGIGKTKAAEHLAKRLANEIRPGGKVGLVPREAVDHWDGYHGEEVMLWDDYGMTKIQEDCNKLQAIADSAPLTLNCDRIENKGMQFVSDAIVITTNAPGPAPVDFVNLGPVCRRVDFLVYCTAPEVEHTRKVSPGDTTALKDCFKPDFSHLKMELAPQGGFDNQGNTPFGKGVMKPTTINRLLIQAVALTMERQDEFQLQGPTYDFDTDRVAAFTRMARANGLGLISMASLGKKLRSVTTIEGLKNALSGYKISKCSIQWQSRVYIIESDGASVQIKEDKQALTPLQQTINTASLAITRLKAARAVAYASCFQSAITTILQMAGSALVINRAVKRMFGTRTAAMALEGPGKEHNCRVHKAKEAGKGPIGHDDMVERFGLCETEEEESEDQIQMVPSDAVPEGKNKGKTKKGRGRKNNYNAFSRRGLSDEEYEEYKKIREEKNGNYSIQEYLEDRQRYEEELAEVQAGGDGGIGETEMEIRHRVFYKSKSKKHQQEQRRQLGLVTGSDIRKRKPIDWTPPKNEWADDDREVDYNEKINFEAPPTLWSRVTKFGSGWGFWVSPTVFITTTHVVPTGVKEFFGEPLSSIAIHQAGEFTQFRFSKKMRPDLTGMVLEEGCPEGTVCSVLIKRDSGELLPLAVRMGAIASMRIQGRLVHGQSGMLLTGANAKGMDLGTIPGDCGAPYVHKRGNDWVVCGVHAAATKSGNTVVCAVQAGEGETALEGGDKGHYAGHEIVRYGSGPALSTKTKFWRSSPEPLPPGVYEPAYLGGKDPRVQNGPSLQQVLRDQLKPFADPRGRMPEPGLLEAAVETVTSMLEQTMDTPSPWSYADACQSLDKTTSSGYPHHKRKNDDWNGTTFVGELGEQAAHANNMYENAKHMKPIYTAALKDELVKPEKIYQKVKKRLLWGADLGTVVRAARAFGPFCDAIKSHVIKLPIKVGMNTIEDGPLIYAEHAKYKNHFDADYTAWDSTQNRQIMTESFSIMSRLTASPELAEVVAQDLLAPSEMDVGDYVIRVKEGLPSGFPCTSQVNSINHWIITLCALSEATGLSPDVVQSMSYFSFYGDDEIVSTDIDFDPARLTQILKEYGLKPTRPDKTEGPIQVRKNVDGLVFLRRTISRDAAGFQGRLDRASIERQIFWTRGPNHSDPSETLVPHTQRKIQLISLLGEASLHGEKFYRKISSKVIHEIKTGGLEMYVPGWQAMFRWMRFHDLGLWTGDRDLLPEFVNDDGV

SMILES | IC50 (Genome polyprotein [1]) [nM] | Ki (Genome polyprotein [1]) [nM] | Ki (Genome polyprotein [2]) [nM] | IC50 (Genome polyprotein [2]) [nM]
CC(C)C[C@H](NC(=O)[C@H](Cc1cccc2ccccc12)NC(=O)c1cnccn1)C(=O)N[C@H](C=O)C[C@@H]1CCNC1=O [US11859014, Compound 29] | 112 | 350 | 670 | 
CC(C)C[C@H](NC(=O)[C@H](Cc1cccc2ccccc12)NC(=O)c1cnccn1)C(=O)N[C@H](C=O)C[C@@H]1CCCNC1=O [US11859014, Compound 23] | 96 | 528 |  | 204
CC(C)C[C@H](NC(=O)[C@H](Cc1ccc(O)cc1)NC(=O)OCc1ccccc1)C(=O)N[C@H](C=O)C[C@@H]1CCCNC1=O [US11859014, Compound 11] | 44 | 123 | 427 | 
CC(C)C[C@H](NC(=O)[C@H](Cc1cccc2ccccc12)NC(=O)OCc1ccccc1)C(=O)N[C@H](/C=C(\C#N)C(N)=O)C[C@@H]1CCCNC1=O [US11859014, Compound 36] |  |  | 3600 | 
O=C[C@H](C[C@@H]1CCCNC1=O)NC(=O)[C@H](Cc1ccccc1)NC(=O)[C@H](Cc1cccc2ccccc12)NC(=O)OCc1ccccc1 [US11859014, Compound 83] |  |  |  | 482
CCOC(=O)/C=C/[C@H](C[C@@H]1CCNC1=O)NC(=O)[C@@H](CC(=O)[C@@H](NC(=O)c1cc(C)on1)C(C)C)Cc1ccc(F)cc1 [US11859014, Compound rupintrivir] |  |  | 8200 | 23600
CC(C)C[C@H](NC(=O)[C@H](Cc1ccc(F)cc1)NC(=O)OCc1ccccc1)C(=O)N[C@H](C=O)C[C@@H]1CCCNC1=O [US11859014, Compound 35] |  |  | 858 | 167
CC(C)C[C@H](NC(=O)[C@H](Cc1cccc2ccccc12)NC(=O)OCc1ccccc1)C(=O)N[C@H](C=O)C[C@@H]1CCCNC1=O [US11859014, Compound 19] | 80 | 155 | 1190 | 
